Source: patent US12258308B2, “Benzene derivative” (ONO PHARMACEUTICAL CO., LTD., priority 2018, dated 2025)

System: rat Schwann cells
Test: In vitro test using Schwann cells (Schwann cell differentiation promotion, MAG immunostaining)
Format: cell-based
Settings: 3 days, MAG-positive area/cell nuclei; for activity at 0.3 µM / activity at 3 µM: Rattus norvegicus, 72 h; for activity at 0.3 µM: read-out: Schwann cell differentiation promotion rate (% of vehicle) 0.3 μmol/L; for activity at 3 µM: read-out: Schwann cell differentiation promotion rate (% of vehicle) 3 μmol/L
Experimental: Biological Experiment Example 1: In Vitro Test Using Schwann Cells
• (1) Preparation of rat Schwann cells
A dorsal root ganglion (abbreviated as “DRG”, hereinafter) was excised from a newborn rat aged 0 to 2 days in a clean bench and was collected in DMEM. After the collection, the tube was centrifuged at 400 g, at room temperature for 3 minutes, then a supernatant was discarded, and a 0.25% collagenase solution was added. There resultant solution was incubated at 37° C. for 30 minutes to disperse and separate the excised DRG, and was then centrifuged at room temperature at 400 g for 3 minutes, then a supernatant was discarded, and then 0.25% Trypsin/EDTA and DNaseI were added. After the incubation at 37° C. for 30 minutes, trypsin was inactivated with DMEM supplemented with 10% FBS (10% FBS-DMEM), and centrifugation was carried out at room temperature at 400 g for 3 minutes. A supernatant was discarded, then 10% FBS-DMEM was added to the residue to prepare a cell suspension, and then the cell suspension was allowed to pass through a filter (diameter: 70 μm). The number of cells in the cell suspension which passed through the filter was counted to prepare a solution having a concentration of 2.0×10^5 cells/mL, and the suspension was seeded in a poly-D-lysine-coated 96-well black-clear plate in an amount of 100 μL/well and was then statically cultured in a CO2 incubator under the conditions including 5% of CO2, 95% of air and 37° C.
The culture medium in the cell culture plate was removed by suction using an aspirator, and then DMEM supplemented with 1% dialyzed FBS and 100 μmol/L dibutyryl cyclic AMP was added. Subsequently, a solution of a compound of the present invention dissolved in DMSO was added, and the resultant solution was statically cultured in a C02 incubator under the conditions including 5% of C02, 95% of air and a temperature of 37° C. The final concentration of the compound of the present invention in each well in the cell culture plate was adjusted to 0.1, 0.3, 1 or 3 μmol/L.
Three days after the treatment with the compound, formaldehyde was added to each well in the cell culture plate, and the cell culture plate was allowed to stand at room temperature for 30 minutes or longer. A supernatant was discarded, and then a 0.3% tritonX-100 solution was added to each well, and then the cell culture plate was allowed to stand at room temperature for 20 minutes or longer. A supernatant was discarded, then a 5-μg/mL anti-myeline-associated glycoprotein antibody (anti-MAG antibody) solution was added to each well, and then the cell culture plate was allowed to stand at room temperature for 60 minutes or longer or at 4° C. (acceptable range: 1 to 9° C.) overnight. Each well was washed with a 0.1% tritonX-100 solution three times, then a 10-μg/mL Alexa fluor 488 anti-mouse IgG solution was added to each well, and then the cell culture plate was allowed to stand at room temperature for 60 or longer or at 4° C. overnight. Each well was washed with a 0.1% tritonX-100 solution four times, and then a 1-μg/mL Hoechst33342 solution was added to each well to stain nuclei.
The Mag-positive area and the number of cell nuclei in a fluorescent image were calculated. With respect to each of the MAG-positive area and the number of cell nuclei, the sum total of values obtained in 5 viewing fields/well was determined. The values were employed as a value for the MAG-positive area and a value for the number of cell nuclei, respectively, in each well. Subsequently, a value determined by dividing the value for the MAG-positive area in each well by the value for the number of cell nuclei in the well (i.e., MAG/cell nuclei numerical value) was calculated. The Schwann cell differentiation promotion rate was determined for each of the vehicles in accordance with the following formula. […]

SMILES | activity at 0.3 µM (compound 0.3 μmol/L) | activity at 3 µM (compound 3 μmol/L) | Schwann cell differentiation promotion rate (% of vehicle) 0.3 μmol/L (compound 0.3 μmol/L) | Schwann cell differentiation promotion rate (% of vehicle) 3 μmol/L (compound 3 μmol/L)
COC(=O)CCc1ccccc1OCCC(=O)/C=C/c1cccc(NS(=O)(=O)c2ccccc2)c1 [Example 77, Methyl 3-[2-[(E)-5-[3-(benzenesulfonamido)phenyl]-3-oxopent-4-enoxy]phenyl]propanoate] | 115% | 256% | – | –
O=C(O)CCc1ccccc1OCC[C@@H](O)/C=C/c1cccc(S(=O)(=O)Nc2ccccc2)c1 [Example 12(7), 3-[2-[(E,3R)-3-Hydroxy-5-[3-(phenylsulfamoyl)phenyl]pent-4-enoxy]phenyl]propanoic acid] | 111% | 379% | – | –
O=C(O)CCc1ccccc1CCCC(=O)CCc1cccc(NS(=O)(=O)c2ccccc2)c1 [Example 112, 3-[2-[6-[3-(Benzenesulfonamido)phenyl]-4-oxohexyl]phenyl]propanoic acid] | 255% | 504% | – | –
O=C(O)CCc1ccccc1OCC[C@@H](O)/C=C/c1ccc2c(c1)CN(S(=O)(=O)c1ccccc1)CC2 [Example 13(19), 3-[2-[(E,3R)-5-[2-(Benzenesulfonyl)-3,4-dihydro-1H-isoquinolin-7-yl]-3-hydroxypent-4-enoxy]phenyl]propanoic Acid] | 142% | 598% | – | –
O=C(O)CCc1ccccc1OCCC(F)(F)CCc1cccc(NS(=O)(=O)c2ccccc2)c1 [Example 139, 3-[2-[5-[3-(Benzenesulfonamido)phenyl]-3,3-difluoropentoxy]phenyl]propanoic acid] | 209% | 541% | – | –
O=C(O)CCc1ccccc1OCC[C@@H](O)/C=C/c1cccc(NS(=O)(=O)c2coc3ccccc23)c1 [Example 74(17), 3-[2-[(E,3R)-5-[3-(1-Benzofuran-3-ylsulfonylamino)phenyl]-3-hydroxypent-4-enoxy]phenyl]propanoic acid] | 85.6% | 252% | – | –
O=C(O)CCc1ccccc1OCC[C@@H](O)/C=C/c1cccc(C[C@H](O)c2ccccc2)c1 [Example 26, 3-[2-[(E,3R)-3-Hydroxy-5-[3-[(2S)-2-hydroxy-2-phenylethyl]phenyl]pent-4-enoxy]phenyl]propanoic acid] | 196% | 439% | – | –
CC(C)OC(=O)CCc1ccccc1OCC[C@@H](O)/C=C/c1cccc(NS(=O)(=O)c2ccccc2)c1 [Example 10, Propan-2-yl 3-[2-[(E,3R)-5-[3-(benzenesulfonamido)phenyl]-3-hydroxypent-4-enoxy]phenyl]propanoate] | 86.2% | 593% | – | –
O=C(O)CCc1ccccc1OCC[C@@H](O)/C=C/c1cccc(NS(=O)(=O)Cc2ccccc2)c1 [Example 74(15), 3-[2-[(E,3R)-5-[3-(Benzilsulfonylamino)phenyl]-3-hydroxypent-4-enoxy]phenyl]propanoic acid] | – | – | 204.5 % of vehicle | 428.1 % of vehicle
O=C(O)CCc1ccccc1OCCCCCC1CCC(NS(=O)(=O)c2ccccc2)CC1 (centres unmarked) [Example 166, 3-[2-[5-[4-(Benzenesulfonamido)cyclohexyl]pentoxy]phenyl]propanoic acid] | 104% | 465% | – | –
O=C(O)CCc1ccccc1OCCCC(=O)CCc1cccc(NS(=O)(=O)c2ccccc2)c1 [Example 103, 3-[2-[6-[3-(Benzenesulfonamido)phenyl]-4-oxohexoxy]phenyl]propanoic acid] | 199% | 354% | – | –
O=C(O)CCc1ccccc1OCC[C@@H](O)CCc1cccc(NS(=O)(=O)C2CCCC2)c1 [Example 75, 3-[2-[(3S)-5-[3-(Cyclopentylsulfonylamino)phenyl]-3-hydroxypentoxy]phenyl]propanoic Acid] | 181% | 244% | – | –
O=C(O)CCc1ccccc1OCCC/C=C/c1nc(C(O)Cc2ccccc2)cs1 (centres unmarked) [Example 93, 3-[2-[(E)-5-[4-(1-Hydroxy-2-phenylethyl)-1,3-thiazol-2-yl]pent-4-enoxy]phenyl]propanoic acid] | 108% | 374% | – | –
O=C(O)CCc1ccccc1OCC[C@@H](O)/C=C/c1ccccc1NC(=O)c1ccccc1 [Example 12(5), 3-[2-[(E,3R)-5-(2-Benzamidophenyl)-3-hydroxypent-4-enoxy]phenyl]propanoic acid] | 147% | 234% | – | –
CN(C)C(=O)CCc1ccccc1OCC[C@@H](O)/C=C/c1cccc(NS(=O)(=O)c2ccccc2)c1 [Example 32(2), 3-[2-[(E,3R)-5-[3-(Benzenesulfonamido)phenyl]-3-hydroxypent-4-enoxy]phenyl]-N,N-dimethylpropanamide] | 340% | 788% | – | –
O=C(O)CCc1ccccc1OCC[C@@H](O)/C=C/c1cccc(C(O)CCc2ccccc2)c1 (stereo partly drawn) [Example 28, 3-[2-[(E,3R)-3-Hydroxy-5-[3-(1-hydroxy-3-phenylpropyl)phenyl]pent-4-enoxy]phenyl]propanoic acid] | 188% | 628% | – | –
O=C(O)CCc1ccccc1OCC[C@@H](O)/C=C/c1cccc(C(=O)Nc2ccccc2)c1 [Example 12(8), 3-[2-[(E,3R)-3-Hydroxy-5-[3-(phenylcarbamoyl)phenyl]pent-4-enoxy]phenyl]propanoic acid] | 158% | 459% | – | –
O=C(O)CCc1ccccc1OCC[C@@H](O)/C=C/c1ccccc1CNS(=O)(=O)c1ccccc1 [Example 12(11), 3-[2-[(E,3R)-5-[2-(Benzenesulfonamidomethyl)phenyl]-3-hydroxypent-4-enoxy]phenyl]propanoic acid] | 203% | 505% | – | –
O=C(O)CCc1ccccc1OCC[C@@H](O)C1CC1c1cccc(NS(=O)(=O)c2ccccc2)c1 (stereo partly drawn) [Example 39, 3-[2-[(3R)-3-[2-[3-(Benzenesulfonamido)phenyl]cyclopropyl]-3-hydroxypropoxy]phenyl]propanoic acid] | 211% | 323% | – | –
O=C(O)CCc1ccccc1OCCOCCc1cccc(NS(=O)(=O)c2ccccc2)c1 [Example 149, 3-[2-[2-[2-[3-(Benzenesulfonamido)phenyl]ethoxy]ethoxy]phenyl]propanoic Acid] | 160% | 645% | – | –
O=C(O)CCc1ccccc1OCC[C@@H](O)/C=C/c1cccc(NCc2ccccc2)c1 [Example 12(6), 3-[2-[(E,3R)-5-[3-(Benzylamino)phenyl]-3-hydroxypent-4-enoxy]phenyl]propanoic acid] | 144% | 435% | – | –
O=C(CCc1ccccc1OCC[C@@H](O)/C=C/c1cccc(NS(=O)(=O)c2ccccc2)c1)N1CCOCC1 [Example 32(1), N-[3-[(E,3R)-3-Hydroxy-5-[2-(3-morpholin-4-yl-3-oxopropyl)phenoxy]pent-1-enyl]phenyl]benzenesulfonamide] | 408% | – | – | –
O=C(O)CCc1ccccc1OCC[C@@H](O)/C=C/c1cccc(NS(=O)(=O)c2ccsc2)c1 [Example 74(19), 3-[2-[(E,3R)-3-Hydroxy-5-[3-(thiophen-3-ylsulfonylamino)phenyl]pent-4-enoxy]phenyl]propanoic Acid] | 187% | 270% | – | –
O=C(O)CCc1ccccc1OCC[C@@H](O)/C=C/c1cccc(NS(=O)(=O)c2ccccn2)c1 [Example 74(16), 3-[2-[(E,3R)-3-Hydroxy-5-[3-(pyridin-2-ylsulfonylamino)phenyl]pent-4-enoxy]phenyl]propanoic acid] | 212% | 300% | – | –
